Key:
Type in all cases: in vivo
[1] = test system: rat model of short bowel syndrome; assay: Rat model of SBS: body weight and intestinal adaptation parameters (bowel circumference, bowel and mucosal weight, mucosal DNA and protein)
Procedure: Animal treatment: Animals were obtained from the Rappaport Faculty of Medicine (Technion, Haifa, Israel). Male rats weighing 240-260 g were kept in individual stainless steel cages at constant temperature and humidity, and a 12-hour light-dark cycle was maintained. Rats were fasted 12 hours prior to the experiment with free access to water. Animals underwent one of two surgical procedures: bowel transection and re-anastomosis or 75% bowel resection and anastomosis. General anesthesia was induced with Pentobarbital (IP 40 mg/kg). Using sterile techniques, the abdomen was opened using a midline incision. In sham rats, simple bowel transection and end-to-end re-anastomosis was performed 15 cm proximal to ileo-cecal junction. In SBS animals, small bowel was resected from a point 5 cm distal to the ligament of Treitz to a point 10 cm proximal to the ileo-cecal junction. Bowel continuity was restored by end-to-end anastomosis using 5-0 Vicryl interrupted sutures. For all operations, the abdominal cavity was closed in two layers with a running suture of 3-0 Dexon. Prior to closure of the abdomen, the rats were resuscitated with a 3 ml intraperitoneal injection of warm normal saline. Rats were fasted for 24 hours but were allowed free access to water.
Experimental design: Forty rats were randomly assigned to one of three groups:
Group A—sham-rats underwent bowel transection (sham, n=14) and than fed with regular chow diet.
Group B—SBS-animals underwent bowel resection (SBS, n=13) and than fed regular chow diet.
(§1) Group C—SBS-Insulin (SBS-INS, n=13) rats underwent bowel resection and were fed regular chow diet and water containing insulin (ACTRAPID insulin, NOVO NORDISK, Denmark) at concentration of 1 u/ml. Food and fluid intake of animals were monitored as well as weight for a period of 14 days following treatment after which the animals were sacrificed following intraperitoneal injection of pentobarbital (75 mg/kg).
Intestinal adaptation parameters: The small bowel was rapidly removed, rinsed with cold isotonic saline and divided into two segments: jejunum proximal to anastomosis and terminal ileum. Each segment was weighed, cut longitudinally, bowel circumference was measured in three equidistant points as described by Dowling [Dowling R H, Booth C C, 1967, Clin Sci; 32: 139-149] and the mean circumference was calculated. Mucosa was scraped using a glass slide, collected and weighed. Bowel and mucosal weight was calculated per cm of bowel length per 100 g of body weight as described previously [Sukhotnik I, et al., 2002, J Surg Res., December; 108(2):235-42]. Although bowel length may change due to spasm or bowel distension, the calculation per unit of bowel length is considered to be the gold standard in describing structural changes in intestine. DNA and protein were extracted using TRIzol reagent (Rhenium LTD, Jerusalem). The DNA concentrations were recorded in a spectrophotometer and calculated per cm of bowel length. Final protein concentration was measured spectrophotometrically using a commercially available kit (Bio-Rad, Protein Assay) and was calculated per cm of bowel length.
Statistical analysis: The data are expressed as the mean±SEM. A paired Student's t-test and the non-parametric Kruskal-Wallis ANOVA test were used as indicted. p<0.05 was considered statistically significant.

[2] = test system: jejunal and ileal crypt cells; assay: Rat model of SBS: crypt cell proliferation (5-BrdU incorporation); conditions: SBS rats, oral insulin, vs SBS-untreated, p<0.05
Procedure: (§2) Animal treatment: Animals were obtained from the Rappaport Faculty of Medicine (Technion, Haifa, Israel). Male rats weighing 240-260 g were kept in individual stainless steel cages at constant temperature and humidity, and a 12-hour light-dark cycle was maintained. Rats were fasted 12 hours prior to the experiment with free access to water. Animals underwent one of two surgical procedures: bowel transection and re-anastomosis or 75% bowel resection and anastomosis. General anesthesia was induced with Pentobarbital (IP 40 mg/kg). Using sterile techniques, the abdomen was opened using a midline incision. […]
as §1
Crypt Cell Proliferation and Enterocyte Apoptosis: Rats were injected with standard 5-bromodeoxyuridine (5-BrdU) labeling reagent (Zymed Lab, Inc, CA) at dose 1 ml per 100 g body weight two hours prior to sacrifice. […] An index of proliferation was determined as the ratio of crypt cells staining positively for BrdU per 10 crypts.

[3] = test system: enterocytes; assay: Rat model of SBS: enterocyte apoptosis (TUNEL assay); conditions: SBS rats, oral insulin
Procedure: as §2, §1
Apoptosis of enterocytes was assessed by terminal […] nick-end labeling (TUNEL) immunohistochemical assay using the I.S. Cell Death Detection kit (Boehringer Mannheim GmbH, Mannheim, Germany). […] For each group, the number of stained cells was counted in at ten villi in areas without necrosis. […]

[4] = SBS rats, oral insulin 1 u/ml in water, 14 days, vs SBS-untreated, p<0.05
[5] = SBS rats, oral insulin supplementation (summary)
[6] = SBS rats, oral insulin, vs SBS-untreated

insulin
additional increase in ileal overall bowel weight [1, 4]: 40%
additional increase in jejunal mucosal weight [1, 4]: 33%
additional increase in jejunal overall bowel weight [1, 4]: 18%
increase in ileal mucosal DNA content [1, 4]: almost two-fold increase
increase in ileal mucosal protein content [1, 4]: two-fold increase
increase in ileal mucosal weight [1, 4]: almost two fold increase
increase in mucosal weight in the remaining segments [1, 5]: 30-200%
increase in overall bowel weight in the remaining segments [1, 5]: 20-50%
increase in bowel diameter ([1]; SBS rats, oral insulin supplementation, remaining segments (summary)): approximately 10%
mucosal DNA in jejunum [1, 6]: not associated with an increase
mucosal protein in jejunum [1, 6]: not associated with an increase
body weight gain ([1]; SBS-INS rats (insulin 1 u/ml in water) vs SBS-nontreated, day 7 through 14, p<0.05): gained weight at greater rate
jejunal and ileal bowel circumference ([1]; SBS-insulin rats vs SBS-untreated, 14 days, insulin 1 u/ml in water): additional increase
additional increase in proliferation index in jejunum [2]: 36%
increase in proliferation index in ileum [2]: 52%
apoptotic cells number in ileum ([3]; vs SBS-untreated): did not affect
apoptotic index in jejunum ([3]; SBS-untreated 29±7, mean±SEM, p<0.05): 11±3 TUNEL positive cells/10 villi
